The values that follow are results of earlier work, collected in patent publication US20070122363A1, “CORPOREAL DELIVERY OF CAROTENOIDS” (priority 2005, published 2007).

The conditions of the series: 50 mg daily, about 22,000 male physicians, versus placebo.

For `CC1=C(/C=C/C(C)=C/C=C/C(C)=C/C=C/C=C(C)/C=C/C=C(C)/C=C/C2=C(C)CCCC2(C)C)C(C)(C)CCC1` [beta-carotene, beta, beta-carotene], the adverse health effects entry is reported as “no adverse health effects”.
